Data on two molecules can be found in patent US20130137629A1, “COMBINATION TREATMENT FOR METABOLIC DISORDERS” (WELLSTAT THERAPEUTICS CORPORATION, priority 2006, published 2013).

Assay [1] concerns streptozotocin-induced diabetes. To be noted: Pospisilik et al., Diabetes 52:741-750, 2003; cited from earlier work.
Assay [2] has as its system db/db mice. Put plainly: Example 5: ten week-old db/db mice, Compound BI +/- P32/98 for 4 weeks. To be noted: Compound BI 100 mg/kg p.o., P32/98 10 mg/kg twice a day by gavage; for Circulating glucose levels: FIG. 11; for Pancreatic insulin: FIG. 12. It is filed as in vivo. How it is done:
Ten week-old db/db mice were given vehicle or Compound BI (100 mg/kg, p.o.)+/−P32/98 (10 mg/kg, twice a day by gavage) as indicated for 4 weeks. Assays for circulating glucose and pancreatic insulin were conducted as in Example 3.

The test system of assay [3] is db/db mice. The settings on record: previous studies; cited from earlier work.
The test system of the next assay is late-stage db/db mice. Put plainly: Example 1: late-stage db/db mice treated daily for 4 weeks; serum glucose, serum insulin and islet insulin. It counts as in vivo. On the procedure: Serum glucose and insulin and pancreatic insulin were measured.
Assay [4] deals with db/db mice. Put plainly: Example 2: db/db mice with glucose above 400 mg/dL treated for 4 weeks; circulating glucose and pancreatic insulin (ECL assay). It counts as in vivo. The settings on record: Compound BI 100 mg/kg by oral gavage, exendin 3 μg/kg or 10 μg/kg i.p.
Procedure: Peripheral blood glucose levels of db/db mice was monitored. When the glucose levels exceeded 400 mg/dL the mice were divided into groups of 6 mice each. The mice in each group were given either vehicle or Compound BI (100 mg/kg by oral gavage)+/−i.p. injections of exendin-amide (Bachem, King of Prussia, PA) as indicated below for 4 weeks. • 1) Vehicle • 2) Vehicle+Exendin (3 μg/kg) • 3) Vehicle+Exendin (10 μg/kg) • 4) Compound BI • 5) Compound BI+Exendin (3 μg/kg) • 6) Compound BI+Exendin (10 μg/kg)
After four weeks of treatment, the mice were bled via the retroorbital sinus and sera sent to Anilytics, Inc. (Gaithersburg, Md.) for analysis of circulating glucose levels. The pancreata were collected, weighed, flash frozen and then processed for pancreatic insulin assays. Briefly, the pancreas was placed into pancreatic extraction solution (75% ethanol and 25% 0.15N HCl) and the volume adjusted to 1 mL per 100 mg of pancreas. The pancreas was then sonicated and stored at −20° C. overnight. The next day, the samples were centrifuged at 2500 rpm for 5 minutes at 4° C. to pellet unsolubilized material. 1.5 mL of supernatant was placed in an Eppendorf tube and spun in a microcentrifuge at 1300 rpm for 20 minutes at 4° C. to pellet any remaining unsolubilized material. […] The samples were then read on an M384 instrument (BioVeris Corp., Gaithersburg, Md.). […]

`CC[C@H](C)[C@H](N)C(=O)N1CCSC1` [P32/98, reference compound]: in assay [1], the “Activity in streptozotocin-induced diabetes” value is “active”. Moreover, in the assay on db/db mice [2], the Circulating glucose levels entry is recorded as “slight reduction in circulating glucose levels” and the Pancreatic insulin result was “no increase in pancreatic insulin”.
Take `Cc1cccc(C)c1COc1cccc(C(=O)CCC(=O)O)c1` [Compound BI, 4-(3-(2,6-Dimethylbenzyloxy)phenyl)-4-oxobutyric acid]: in the assay on db/db mice [3], the Islet insulin content result is recorded as “preserves islet insulin content”. Further, in the assay with late-stage db/db mice (daily for 4 weeks, Compound BI 100 mg/kg/day p.o., Exendin-4 amide 10 microgram/day i.p., FIG. 1), the Serum glucose result is given as “reduced serum glucose substantially”. Further, in the assay on late-stage db/db mice (daily for 4 weeks, Compound BI 100 mg/kg/day p.o., Exendin-4 amide 10 microgram/day i.p., FIG. 2), the Islet insulin result is “had more insulin than either of those two groups”. In the assay on late-stage db/db mice (daily for 4 weeks, Compound BI 100 mg/kg/day p.o., Exendin-4 amide 10 microgram/day i.p., FIG. 3), the Serum insulin entry is “without a significant increase in serum insulin”. The Insulin resistance entry in the assay on late-stage db/db mice (inferred from glucose lowering without a significant increase in serum insulin, 4 weeks) is on record as “reduced insulin resistance”. The Circulating glucose levels result in the assay with db/db mice [2] is “reduced circulating glucose levels”; with db/db mice [4] (FIG. 4) it was “significant reduction in circulating glucose levels”. In addition, the Pancreatic insulin result is given as “increased pancreatic insulin levels” with db/db mice [2] and “corresponding increase in pancreatic insulin” in the assay with db/db mice [4] (FIG. 5).
